Results on two compounds are retold here after patent US8946431B2, “2-(substituted ethynyl)quinoline derivatives as mGLUr5 antagonists” (Korea Institute of Science and Technology, priority 2013, dated 2015).

Like-named read-outs stand apart in the source and are kept apart here. Marks after values point to notes of the source that are not given here.

The nature of data set [1]: HLM (human liver microsomal) stability. It counts as in vitro ADME. As to conditions: human liver microsomes. A general note: Liver microsomes are a subcellular fraction often used to study metabolism.
A further data set concerns the target hERG (Homo sapiens, UniProt Q12809). Put plainly: Inhibitory concentration (IC50) on hERG. Background: The hERG channel carries a current that helps repolarise heart muscle cells.
The next data set concerns the target CYP2D6 (Homo sapiens, UniProt P10635). Put plainly: CYP inhibitory rate, CYP2D6. In kind it is in vitro ADME.
The next data set addresses CYP2C9 (Homo sapiens, UniProt P11712). Put plainly: CYP inhibitory rate, CYP2C9. It counts as in vitro ADME.
The conditions of data set [2]: rat.
The test system of data set [3] is SNL (spinal nerve ligation) neuropathic pain models. Put plainly: In vivo test in SNL (spinal nerve ligation) neuropathic pain models. As to conditions: orally administered, SNL model, compared with gabapentin as control (FIG. 1 C, D). The text has this:
The compound prepared in Example 26 was subjected to an in vivo test as follows. […] Here, gabapentin was used as a control.

In data set [4] the target is T1, mGluR5 (Homo sapiens, UniProt P41594).
T1 construct: host or cells: HEK293 (human embryonic kidney) cells stably expressing m-GluR5
T1 sequence (P41594 21-1212): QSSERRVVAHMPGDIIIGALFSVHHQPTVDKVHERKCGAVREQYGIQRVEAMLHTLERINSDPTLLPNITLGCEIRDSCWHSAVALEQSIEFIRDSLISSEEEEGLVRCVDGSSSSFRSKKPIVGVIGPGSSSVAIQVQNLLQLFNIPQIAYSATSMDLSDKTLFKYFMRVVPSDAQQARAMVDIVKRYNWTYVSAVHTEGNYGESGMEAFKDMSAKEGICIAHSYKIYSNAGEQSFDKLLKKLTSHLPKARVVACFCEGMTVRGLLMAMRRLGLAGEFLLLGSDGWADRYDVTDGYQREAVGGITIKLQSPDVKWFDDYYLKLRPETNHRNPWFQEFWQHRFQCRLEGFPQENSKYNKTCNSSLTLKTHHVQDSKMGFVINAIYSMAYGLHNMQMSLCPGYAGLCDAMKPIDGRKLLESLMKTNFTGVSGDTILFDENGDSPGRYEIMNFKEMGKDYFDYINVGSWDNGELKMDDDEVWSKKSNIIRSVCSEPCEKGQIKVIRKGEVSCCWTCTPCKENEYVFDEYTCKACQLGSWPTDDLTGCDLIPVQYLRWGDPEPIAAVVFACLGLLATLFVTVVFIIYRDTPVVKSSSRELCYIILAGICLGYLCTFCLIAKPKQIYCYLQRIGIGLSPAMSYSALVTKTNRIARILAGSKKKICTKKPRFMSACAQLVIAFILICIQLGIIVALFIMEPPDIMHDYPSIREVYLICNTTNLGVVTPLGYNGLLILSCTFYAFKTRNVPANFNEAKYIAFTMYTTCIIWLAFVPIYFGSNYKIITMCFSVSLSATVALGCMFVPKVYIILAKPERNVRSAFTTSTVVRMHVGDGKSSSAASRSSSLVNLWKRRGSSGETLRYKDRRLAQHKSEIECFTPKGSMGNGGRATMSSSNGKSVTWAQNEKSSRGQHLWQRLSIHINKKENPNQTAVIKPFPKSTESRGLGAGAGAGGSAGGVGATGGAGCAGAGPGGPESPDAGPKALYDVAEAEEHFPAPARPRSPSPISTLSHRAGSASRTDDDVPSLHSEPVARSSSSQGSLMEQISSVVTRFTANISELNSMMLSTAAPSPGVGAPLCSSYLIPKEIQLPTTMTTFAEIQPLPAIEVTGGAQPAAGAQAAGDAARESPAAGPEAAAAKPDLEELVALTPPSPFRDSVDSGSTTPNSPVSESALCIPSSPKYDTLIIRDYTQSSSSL
Put plainly: Assay for m-GluR5 activity using FDSS6000 (calcium mobilization by L-glutamate in mGluR5/HEK293 cells). It counts as cell-based. As to conditions: HEK293, L-glutamate 10 uM, HEK cells expressing m-GluR5, read-out: % Inhibition rate (mGluR5); for inhibition at 1 µM: 1 μM compound; for inhibition at 10 µM: 10 μM compound. Here is the method:
Inhibitory activity (%) of the compound represented by Formula 1 on calcium mobilization developed at a high concentration of glutamate in mGluR5/HEK293 cells was measured by using a high throughput FDSS6000.
After HEK cells stably expressing m-GluR5 (Human embryonic kidney cell line; m-GluR5: Yonsei University) were prepared at a density of 4×10^4/Ml per well, aliquots of 100 μl from the cell suspension were distributed evenly into a 96-well plate and incubated for 18 hr at 37° C., 5% CO2. The well plate was washed with a HBSS buffer to remove the culture medium, and reacted with a HBSS buffer containing a Ca^2+ fluorescent dye (FLIPR Calcium 5 assay kit: Molecular Devices) for 30 min at 37° C., 5% CO2, thereby labeling with the fluorescent dye. Separately from the 96-well plate including the cells, another 96-well plate including L-glutamate (final concentration: 10 uM) capable of activating m-GluR5 and a blacking agent was prepared. Since most of cell-based HTS devices are equipped with a liquid application system for injection of a drug, but have no liquid sucking system, the blocking agent to be tested and L-glutamate were respectively provided at a 6-fold higher concentration in a HBSS buffer at the amount of 25 μl, diluted by six-times at the final cell plate volume of 150 μl, and then used in this assay. Briefly, the FDSS6000 assay was carried out by recording a reference level of 20 sec, pre-treating with a blocking agent for 75 sec, and then measuring the change in intracellular calcium level depending on the administration of L-glutamate. After the area of a 480/520 ratio value in a control without treatment of a test drug was set to 100%, an inhibitory effect of the test drug was calculated as a percentage (%) thereon.
For accurate calcium imaging, the light source of 4 xenon lamps in FDSS6000 were radiated to selectively expose the cells to the excitation wavelength (480 nm) by a computer-controlled filter wheel. Data were obtained at intervals of 1.23 sec. The emitter fluorescence light inflowed through a 520 nm long-pass filter was obtained as an average 480/520 ratio value for each well in the 96-wells by using a CCD camera and a digital fluorescence analyzer in FDSS6000. All image data and analyses were obtained by using a FDSS6000-exclusive program from Hamamatsu Photonics.
Background: Calcium assays in cells follow changes in intracellular calcium, usually with a dye or a luminescent sensor.

A further data set deals with CYP3A4 (Homo sapiens, UniProt P08684). Put plainly: CYP inhibitory rate, CYP3A4. In kind it is in vitro ADME.
Chain of CYP3A4 (P08684 whole entry): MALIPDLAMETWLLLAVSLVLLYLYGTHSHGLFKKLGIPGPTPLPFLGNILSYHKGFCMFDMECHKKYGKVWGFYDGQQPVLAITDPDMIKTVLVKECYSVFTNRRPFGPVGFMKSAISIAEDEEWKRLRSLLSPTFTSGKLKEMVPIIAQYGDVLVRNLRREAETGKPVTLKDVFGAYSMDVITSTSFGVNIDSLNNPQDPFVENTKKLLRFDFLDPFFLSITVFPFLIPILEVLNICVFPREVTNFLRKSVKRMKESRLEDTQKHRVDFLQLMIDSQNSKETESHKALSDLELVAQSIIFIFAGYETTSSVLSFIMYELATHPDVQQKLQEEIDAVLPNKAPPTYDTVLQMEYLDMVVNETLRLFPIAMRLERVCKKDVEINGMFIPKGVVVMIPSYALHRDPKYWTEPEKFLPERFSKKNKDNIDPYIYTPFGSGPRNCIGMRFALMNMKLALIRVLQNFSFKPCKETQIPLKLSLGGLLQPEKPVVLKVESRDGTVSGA
The target of data set [5] is T1, mGluR5. Put plainly: Inhibitory concentration (IC50) on mGluR5. In kind it is cell-based.

Chain of CYP2D6 (P10635 whole entry): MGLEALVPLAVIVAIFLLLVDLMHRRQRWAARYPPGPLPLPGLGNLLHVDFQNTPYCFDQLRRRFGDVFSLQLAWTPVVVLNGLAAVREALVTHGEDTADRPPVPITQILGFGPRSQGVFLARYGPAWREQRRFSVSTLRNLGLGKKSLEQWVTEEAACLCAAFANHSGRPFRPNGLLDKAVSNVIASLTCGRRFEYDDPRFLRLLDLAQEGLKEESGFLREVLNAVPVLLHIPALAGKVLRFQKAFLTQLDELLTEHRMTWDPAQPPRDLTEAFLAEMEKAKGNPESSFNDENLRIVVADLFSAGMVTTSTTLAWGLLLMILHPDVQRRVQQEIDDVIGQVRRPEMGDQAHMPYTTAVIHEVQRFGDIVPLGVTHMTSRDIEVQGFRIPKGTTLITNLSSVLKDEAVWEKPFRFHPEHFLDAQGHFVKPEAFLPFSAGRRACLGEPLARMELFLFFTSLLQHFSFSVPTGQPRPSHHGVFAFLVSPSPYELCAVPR
Chain of hERG (Q12809 whole entry): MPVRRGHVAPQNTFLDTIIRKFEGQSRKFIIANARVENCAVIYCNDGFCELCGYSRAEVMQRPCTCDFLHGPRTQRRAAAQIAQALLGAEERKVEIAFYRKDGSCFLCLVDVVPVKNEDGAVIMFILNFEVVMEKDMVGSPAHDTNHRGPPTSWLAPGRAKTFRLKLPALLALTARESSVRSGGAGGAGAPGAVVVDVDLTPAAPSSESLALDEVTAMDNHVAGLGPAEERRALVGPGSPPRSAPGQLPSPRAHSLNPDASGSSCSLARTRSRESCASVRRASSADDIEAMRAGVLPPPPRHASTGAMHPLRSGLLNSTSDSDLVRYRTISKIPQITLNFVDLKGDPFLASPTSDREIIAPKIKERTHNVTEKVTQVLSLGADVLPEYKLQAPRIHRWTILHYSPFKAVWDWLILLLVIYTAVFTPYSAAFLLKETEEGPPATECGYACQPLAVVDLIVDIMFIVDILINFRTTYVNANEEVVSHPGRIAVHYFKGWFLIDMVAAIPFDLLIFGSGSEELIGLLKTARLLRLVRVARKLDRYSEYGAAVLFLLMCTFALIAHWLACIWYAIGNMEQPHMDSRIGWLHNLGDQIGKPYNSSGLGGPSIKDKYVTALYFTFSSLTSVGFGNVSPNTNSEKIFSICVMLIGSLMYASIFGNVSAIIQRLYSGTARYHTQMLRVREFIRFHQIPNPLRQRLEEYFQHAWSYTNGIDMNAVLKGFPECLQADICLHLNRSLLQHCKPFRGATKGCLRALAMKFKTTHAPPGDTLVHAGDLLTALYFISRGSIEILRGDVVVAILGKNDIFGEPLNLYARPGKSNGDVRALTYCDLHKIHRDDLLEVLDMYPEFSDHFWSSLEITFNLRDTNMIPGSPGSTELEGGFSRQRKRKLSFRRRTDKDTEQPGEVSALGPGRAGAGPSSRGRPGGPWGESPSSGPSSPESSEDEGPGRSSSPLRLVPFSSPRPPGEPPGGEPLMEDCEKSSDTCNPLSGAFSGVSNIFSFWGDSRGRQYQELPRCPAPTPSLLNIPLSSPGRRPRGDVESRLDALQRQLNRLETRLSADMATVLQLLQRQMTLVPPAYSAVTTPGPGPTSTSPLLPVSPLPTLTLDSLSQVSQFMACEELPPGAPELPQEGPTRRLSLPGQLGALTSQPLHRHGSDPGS
Chain of CYP2C9 (P11712 whole entry): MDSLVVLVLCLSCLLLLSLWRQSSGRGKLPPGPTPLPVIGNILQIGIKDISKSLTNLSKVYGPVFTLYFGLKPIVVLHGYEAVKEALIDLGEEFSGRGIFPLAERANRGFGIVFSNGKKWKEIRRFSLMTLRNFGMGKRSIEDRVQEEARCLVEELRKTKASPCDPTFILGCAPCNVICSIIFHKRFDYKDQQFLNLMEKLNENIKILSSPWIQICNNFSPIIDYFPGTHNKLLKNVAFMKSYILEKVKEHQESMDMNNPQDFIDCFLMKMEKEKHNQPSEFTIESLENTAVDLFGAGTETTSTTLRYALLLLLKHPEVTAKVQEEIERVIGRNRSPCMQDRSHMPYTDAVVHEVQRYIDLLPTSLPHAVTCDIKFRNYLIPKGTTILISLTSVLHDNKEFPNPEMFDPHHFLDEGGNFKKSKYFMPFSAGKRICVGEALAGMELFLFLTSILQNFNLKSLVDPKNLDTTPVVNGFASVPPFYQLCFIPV

As to `C(#Cc1ccc2ccccc2n1)c1ccccn1` [Example 26, 2-(Pyridine-2-ylethynyl)quinoline], the “HLM % remaining after 30 min” value in data set [1] worked out at 88%. At hERG, it took 20.3 ± 6.11 µM to reach half-maximal inhibition (IC50). On CYP2D6, the “CYP (% remaining @ 10 μM) CYP2D6” value is 98%. Further, the “CYP (% remaining @ 10 μM) CYP2C9” value at CYP2C9 was over 99%. Further, in data set [2] (intravenous injection (n=4)), the CL is given as 84.93 (±8.98) mL/min/kg, the T1/2 is given as 58.24 (±62.41) min and the Vdss is 1269.02 (±158.55) mL/kg. The compound also showed a F in [2] (oral administration) of 15.9%. Moreover, in data set [2] (oral administration (n=3)), the Cmax is on record as 0.43 (±0.18) μg/mL and the T1/2 is listed as 48.53 (±8.06) min. In addition, the Tmax in [2] (oral administration (n=3), median value (range)) is on record as 10 (5-30)^a min. In [3], the “inhibitory effect on cold allodynia” value was “higher inhibitory effect”. At mGluR5 [4], the inhibition at 1 µM is 58.8% and the inhibition at 10 µM was determined as 76.7%. Also, at CYP3A4, the “CYP (% remaining @ 10 μM) CYP3A4” value was 77%. In addition, the IC50 at mGluR5 [5] worked out at 940 ± 250 nM.

On to `N#Cc1cccc(C#Cc2ccc3ccccc3n2)n1` [Example 39, 6-(Quinoline-2-ylethynyl)picolinonitrile], for which, in [1], the “HLM % remaining after 30 min” value is 98%. The IC50 on hERG amounted to 22.7 ± 7.04 µM; at mGluR5 [5] it was 750 ± 170 nM. Moreover, the “CYP (% remaining @ 10 μM) CYP2D6” value at CYP2D6 was 78%. The “CYP (% remaining @ 10 μM) CYP2C9” value on CYP2C9 turned out to be 52%. In addition, the inhibition at 1 µM on mGluR5 [4] was 33%. On mGluR5 [4], the inhibition at 10 µM was 64.8%. The “CYP (% remaining @ 10 μM) CYP3A4” value at CYP3A4 was 56%.

Broadly, the IC50 is the concentration at which inhibition is half-maximal. Low values mean greater potency in that assay, high ones weaker potency in that assay. A word on the inhibition: it is how much of the control response was suppressed.
